Experimental data taken from publication PMC6753678, “Fueling Open Innovation for Malaria Transmission-Blocking Drugs: Hundreds of Molecules Targeting Early Parasite Mosquito Stages” (Frontiers in Microbiology, 2019).
Like-named read-outs stand apart in the source and are kept apart here.

Assays:
[1] = tested on: P. falciparum female gametocytes; test: P. falciparum female gametogenesis assay (Pf FGAA); conditions: 1: YES; 0: NO
[2] = tested on: P. berghei ookinete development; conditions: for Is compound selective in assay? Pb ODA active?: 1: YES, 0: NO; for % inhibition, Replicate A / % inhibition, Replicate B: primary screen at 1 μM
[3] = tested on: P. falciparum late stage (stages IV-V) gametocytes; test: P. falciparum late stage gametocyte ATP depletion assay (Pf GC-ATP); conditions: 1: YES; 0: NO
[4] = tested on: HepG2 cells; test: HepG2 cytotoxicity assay; conditions: for IC50: read-out: HepG2 cytotoxicity assay IC50, dose response confirmation; for HepG2 cytoxicity: value reported with the Pb ODA screen
Outline: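 Here viability after a 48 h compound incubation (37°C, humidified 5% CO2) is measured by fluorescence and expressed as percent inhibition, with doxorubicin at 50 μM and DMSO as the bounding controls.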

[5] = tested on: P. falciparum female gametocytes; design: method as in Miguel-Blanco et al 2017; conditions: ref Miguel-Blanco et al 2017, read-out: Pf FGAA IC50, cited from earlier work
[6] = tested on: 3D7-strain P. falciparum asexual parasites; test: P. falciparum asexual growth inhibition assay (Pf GIA); type: cell-based, Plasmodium falciparum; conditions: dose response confirmation; read-out: Pf asexual growth inhibition assays IC50
Outline: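 0.25% parasitemia, 2% Hct, RPMI/HEPES/hypoxanthine/5% Albumax; compound dose response, 72 h, 37°C, 5% CO2, 5% O2, 90% N2. Freeze-thaw, then LDH assay, A650. % inhibition vs chloroquine (50 μM)/DMSO, mean of 3 independent runs.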

[7] = tested on: HepG2 cells; conditions: cited from earlier work
[8] = tested on: P. falciparum late stage (stages IV-V) gametocytes; design: method as in Almela et al 2016; conditions: ref Almela et al 2016, read-out: Pf GCT ATP IC50, cited from earlier work
[9] = read-out: Pb ODA IC50, this manuscript
[10] = read-out: Pb Ookinete development assay IC50, dose response confirmation
[11] = HepG2 cytotoxicity unified across the three screens
[12] = value reported with the Pf FGAA screen, ref Miguel-Blanco et al 2017
[13] = value reported with the Pf GCT ATP screen, ref Almela et al 2016

| Compound | Is compound selective in assay? Pf FGAA active? [1] | % inhibition, Replicate A [2] | % inhibition, Replicate B [2] | Is compound selective in assay? Pf GC-ATP active? [3] | Unified cytotox [4, 11] | IC50 ([5]; TCAMS screen comparison) | HepG2 cytoxicity [7, 12] | HepG2 cytoxicity [7, 13] | IC50 ([8]; TCAMS screen comparison) | also measured |
| --- | --- | --- | --- | --- | --- | --- | --- | --- | --- | --- |
| Cl.c1ccc2c(NCCCCCCCCCNc3c4ccccc4nc4ccccc34)c3ccccc3nc2c1 [TCMDC-124286] | 0 (0: NO) | 34.80% | 55.23% | 0 (0: NO) |  |  |  |  |  | Is compound selective in assay? Pb ODA active? [2]: 0 (0: NO); IC50 [2, 9]: 2030 nM; IC50 [2, 10]: 2030 nM; HepG2 cytoxicity (Pb ODA, this manuscript) ([4]; HepG2, this manuscript): 5.50 µM; Unified cytotox ([4]; HepG2 values of the three screens unified): 5.50 µM; IC50 [4]: 5500 nM; IC50 [5]: 1800 nM; IC50 [6]: 349 nM; HepG2 cytoxicity (Pf GCT ATP screen) ([7]; HepG2, ref Almela et al 2016): 6.1 µM; HepG2 cytoxicity (Pf FGAA screen) ([7]; HepG2, ref Miguel-Blanco et al 2017): 4.90 µM; IC50 [8]: 1500 nM |
| CCc1c(CCNCCCCCCNCCc2ccc([N+](=O)[O-])cc2)ccc(OC)c1OC.Cl [TCMDC-132066] | 0 (0: NO) | 25.72% | 55.23% | 1 (1: YES) | 5.46 µM | 1460 nM | 4.57 µM | 6.67 µM | 540 nM | Is compound selective in assay? Pb ODA active? [2]: 0 (0: NO); IC50 [2, 9]: 6610 nM; IC50 [2, 10]: 6600 nM; IC50 [4]: 5130 nM; HepG2 cytoxicity ([4]; this manuscript): 5.13 µM; IC50 [6]: 675 nM |
| COc1cc(-c2cc(-c3ccc(S(C)(=O)=O)cc3)cnc2N)ccc1O [TCMDC-133343] | 1 (1: YES) | 63.88% | 36.72% | 1 (1: YES) | 49.62 µM | 390 nM | 41.69 µM | >25 µM | 1240 nM | Is compound selective in assay? Pb ODA active? [2]: 1 (1: YES); IC50 [2, 9]: 2110 nM; IC50 [2, 10]: 2110 nM; IC50 [4]: 57500 nM; HepG2 cytoxicity ([4]; this manuscript): 57.54 µM; IC50 [6]: 242 nM |
| Cc1occc1C(=O)Nc1nc(-c2ccccn2)nc2ccsc12 [TCMDC-135244] | 1 (1: YES) | 79.17% | 64.59% | 0 (0: NO) | 0.87 µM | 60 nM | >100 µM | <1.56 µM | 300 nM | Is compound selective in assay? Pb ODA active? [2]: 0 (0: NO); IC50 [2, 9]: 1340 nM; IC50 [2, 10]: 1340 nM; IC50 [4]: 870 nM; IC50 [6]: 656 nM |
| Nc1nc(N)c2c(ccc3c2ccn3Cc2ccc(-c3ccccc3)cc2)n1 [TCMDC-137813] | 0 (0: NO) | 53.67% | 5.32% | 0 (0: NO) | 1.38 µM | 2010 nM | 1.16 µM | 1.6 µM | 1450 nM |  |
| CC(=O)c1ccc2nc[nH]c(=O)c2c1 [TCMDC-138172] | 0 (0: NO) | 76.19% | 65.80% | 0 (0: NO) | 3.74 µM | 980 nM | 6.24 µM | <1.56 µM | 400 nM | Is compound selective in assay? Pb ODA active? [2]: 0 (0: NO); IC50 [2, 9]: 500 nM; IC50 [2, 10]: 503 nM; IC50 [4]: 1240 nM; HepG2 cytoxicity ([4]; this manuscript): 1.24 µM; IC50 [6]: 287 nM |
| CC1(C)CC(NCCCCCCCOc2ccc(OCc3ccccc3)cc2)CC(C)(C)N1.Cl [TCMDC-138958] | 0 (0: NO) | 59.61% | 10.57% | 0 (0: NO) | 2.88 µM | 1230 nM | 2.75 µM | 3 µM | 680 nM |  |
| CCCCCCCN1CC[C@@H](CCCc2ccnc3ccc(OCCN4CCNCC4)cc23)[C@@H](CC)C1.Cl [TCMDC-139817] | 0 (0: NO) |  |  | 1 (1: YES) | 5.82 µM | 1860 nM | 4.90 µM | 6.75 µM | 570 nM |  |
| Cc1oc(-c2ccc(Cl)cc2)cc1C(=O)NCCC1CCN(CCCCCNC(=O)/C=C/c2ccc(Cl)c(Cl)c2)CC1 [TCMDC-140009] | 0 (0: NO) |  |  | 0 (0: NO) | 3.71 µM | 1830 nM | 3.31 µM | 4.1 µM | 5430 nM |  |
| CC(Cc1ccc(OCCCCOc2ccccc2)cc1)NCCC1CCCN1C (centres unmarked) [TCMDC-140017] | 0 (0: NO) |  |  | 1 (1: YES) | 1.12 µM | 200 nM | 1.12 µM | <1.56 µM | 95 nM |  |
| CN(CCCCN)Cc1ccc(-c2ccc(Cl)cc2)cc1 [TCMDC-140123] | 0 (0: NO) |  |  | 0 (0: NO) | 3.77 µM | 1580 nM | 3.55 µM | 3.99 µM | 410 nM |  |
| CN1CCN(CCCN(Cc2cccc(-c3ccc(CNC4CCCC4)cc3)c2)C(=O)/C=C/c2ccccc2)CC1.O=C(O)C(F)(F)F [TCMDC-140544] | 0 (0: NO) |  |  | 0 (0: NO) | 7.04 µM | 1360 nM | 7.70 µM | 6.39 µM | 740 nM |  |
| CN1CCN(CCCN(Cc2cccc(-c3ccc(CNCCc4ccccc4)cc3)c2)C(=O)c2cccs2)CC1.O=C(O)C(F)(F)F [TCMDC-140568] | 0 (0: NO) |  |  | 0 (0: NO) | 5.79 µM | 1710 nM | 5.98 µM | 5.6 µM | 890 nM |  |
| CN1CCN(CCCNCc2cccc(-c3ccc(CNCCc4ccccc4)cc3)c2)CC1 [TCMDC-140643] | 0 (0: NO) |  |  | 1 (1: YES) | 13.08 µM | 1910 nM | 7.92 µM | 18.24 µM | 410 nM |  |
| COc1cc(NCCCNCc2cn(Cc3cc(Br)cc(Br)c3)c3ccccc23)nc2ccccc12 [TCMDC-140677] | 0 (0: NO) |  |  | 0 (0: NO) | 5.03 µM | 860 nM | 3.94 µM | 6.13 µM | 590 nM |  |
| CN(C)CCCOc1ccc(CN2CCC(c3c[nH]c4ccc(NCC5CCCCC5)cc34)CC2)cc1.O=C(O)C(F)(F)F [TCMDC-140737] | 1 (1: YES) |  |  | 1 (1: YES) | 6.14 µM | 560 nM | 5.48 µM | 6.8 µM | 500 nM |  |
| CCN(CC)CCN(Cc1ccc(-c2ccc(C(F)(F)F)cc2)cc1)C(=O)Cn1cc(Cc2cnn(C)c2)c(=O)nc1/C=C/c1cccc(F)c1F [TCMDC-140964] | 1 (1: YES) |  |  | 1 (1: YES) | 12.05 µM | 870 nM | 9.69 µM | 14.4 µM | 170 nM |  |
| Cc1c(Cn2ncc(N3CCC(N)CC3)c(Cl)c2=O)cccc1NC(=O)Nc1ccc(-c2ccccc2)cc1.O=C(O)C(F)(F)F [TCMDC-141931] | 1 (1: YES) |  |  | 1 (1: YES) | 18.70 µM | 1090 nM | 22.90 µM | 14.5 µM | 1180 nM |  |
| Cl.Nc1c(I)cc(C(=O)Nc2ccc3nc4c(c(N)c3c2)CCCC4)cc1I [TCMDC-142289] | 0 (0: NO) |  |  | 1 (1: YES) | 6.27 µM | 780 nM | 4.52 µM | 8.03 µM | 410 nM |  |
